Data published in patent publication US20240398767A1, “INHIBITORS OF THE MTDH-SND1 PROTEIN COMPLEX FOR CANCER THERAPY” (The Trustees of Princeton University, priority 2021, published 2024).

Experiments:
[1] = target: T1, MTDH-SND1 interaction (split-luc) in SCP28 cells (Homo sapiens, UniProt Q7KZF4); test: Split-luciferase reporter in living SCP28 cells; format: cell-based; conditions: for blocking efficiency over time (stability of the compounds in cells): 100 μM, 5 days after the addition; for split-luc activity in living cells: multiple doses, 30 min after treatment
T1 construct: SND1-NLuc and CLuc-MTDH flanked by BamH 1 and Not 1 restriction sites were inserted into pcDNA3.1 and pRVPTO (retrovrial) vectors; expressed in transfected cells; host or cells: SCP28 cells stably transduced with pRVPTO retroviral vectors (packaged in H29 cells)
T1 sequence (Q7KZF4 with tags, fused parts or gaps): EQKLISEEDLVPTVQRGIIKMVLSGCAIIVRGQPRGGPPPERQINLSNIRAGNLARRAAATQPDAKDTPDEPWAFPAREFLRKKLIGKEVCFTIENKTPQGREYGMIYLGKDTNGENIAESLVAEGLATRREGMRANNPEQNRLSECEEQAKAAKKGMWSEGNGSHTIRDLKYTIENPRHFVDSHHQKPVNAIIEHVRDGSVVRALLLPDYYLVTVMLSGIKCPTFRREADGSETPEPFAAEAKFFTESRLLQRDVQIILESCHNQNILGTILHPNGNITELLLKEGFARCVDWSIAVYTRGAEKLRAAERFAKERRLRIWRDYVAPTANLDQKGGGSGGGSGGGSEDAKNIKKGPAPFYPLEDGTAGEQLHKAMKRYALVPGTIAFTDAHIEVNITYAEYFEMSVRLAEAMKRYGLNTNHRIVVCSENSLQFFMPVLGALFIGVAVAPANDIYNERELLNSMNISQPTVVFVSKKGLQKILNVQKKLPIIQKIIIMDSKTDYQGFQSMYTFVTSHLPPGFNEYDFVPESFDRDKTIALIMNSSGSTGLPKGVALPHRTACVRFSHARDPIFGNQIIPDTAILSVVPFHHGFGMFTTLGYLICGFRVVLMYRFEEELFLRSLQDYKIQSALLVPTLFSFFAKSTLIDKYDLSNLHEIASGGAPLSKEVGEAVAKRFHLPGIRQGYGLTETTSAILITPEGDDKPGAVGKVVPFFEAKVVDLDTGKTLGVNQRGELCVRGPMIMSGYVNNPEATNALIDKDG
Method: FIG. 4A, SCP28 cells that stably express split- or linked-luciferase components were treated with multiple doses of C26-A2 or C26-A6. 30 minutes (min) after treatment, culture media was removed and the luciferase activity in the cells was measured. Data represent mean±SEM. n=3 independent experiments.
FIG. 4B, The same cells as in FIG. 4A were treated with 100 μM of the compounds for indicated days, and were harvested to measure the luciferase activity. Data represent mean±SEM. n=3 independent experiments.
C26s inhibit breast cancer progression and metastasis. C26-A2 and A6 were picked for the functional test. To this end, it was tested whether C26-A2 and A6 could inhibit breast cancer progression. […] Next, SCP28 breast cancer cells that were engineered to express split- or linked-luciferase reporter were treated with C26-A2 or A6.

MTDH-SND1 interaction = target: T2, MTDH-SND1 interaction (Homo sapiens, UniProt Q7KZF4); test: Co-immunoprecipitation (Co-IP) in SCP28 lysates with anti-MTDH antibody, Western blot for SND1; format: binding; conditions: 500 μM, SCP28 lysate
T2 construct: endogenous in cells; host or cells: SCP28 cells (lysate)
T2 sequence (Q7KZF4 2-910 limits assumed): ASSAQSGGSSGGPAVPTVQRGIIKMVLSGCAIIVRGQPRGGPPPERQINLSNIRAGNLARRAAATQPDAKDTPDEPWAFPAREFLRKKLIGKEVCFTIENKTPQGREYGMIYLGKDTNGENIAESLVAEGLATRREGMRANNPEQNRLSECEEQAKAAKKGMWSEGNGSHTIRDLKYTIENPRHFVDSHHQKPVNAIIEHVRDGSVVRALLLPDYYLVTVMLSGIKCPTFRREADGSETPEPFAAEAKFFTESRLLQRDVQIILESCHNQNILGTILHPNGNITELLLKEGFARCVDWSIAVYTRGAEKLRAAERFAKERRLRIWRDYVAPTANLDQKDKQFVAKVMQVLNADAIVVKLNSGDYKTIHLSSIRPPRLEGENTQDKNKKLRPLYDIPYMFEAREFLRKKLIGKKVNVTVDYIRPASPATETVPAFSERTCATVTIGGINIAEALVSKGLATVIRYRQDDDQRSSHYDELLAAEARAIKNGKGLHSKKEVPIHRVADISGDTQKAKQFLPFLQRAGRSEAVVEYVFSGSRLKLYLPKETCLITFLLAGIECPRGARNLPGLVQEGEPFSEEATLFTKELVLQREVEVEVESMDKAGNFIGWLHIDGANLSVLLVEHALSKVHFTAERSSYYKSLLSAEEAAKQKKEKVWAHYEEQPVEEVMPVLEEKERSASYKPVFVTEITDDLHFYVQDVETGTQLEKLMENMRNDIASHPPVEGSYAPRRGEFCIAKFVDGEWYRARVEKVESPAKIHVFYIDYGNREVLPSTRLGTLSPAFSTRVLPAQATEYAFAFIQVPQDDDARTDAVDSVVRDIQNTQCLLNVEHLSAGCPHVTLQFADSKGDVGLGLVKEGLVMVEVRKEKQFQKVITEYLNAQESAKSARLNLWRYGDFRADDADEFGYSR
Method: FIG. 3F, SCP28 cells grown confluent in each 10-cm dish were lysed with 1 ml IP lysis buffer. 500 μM of the compounds were added into each 1 ml of the samples and IP lysis buffer with 2 μg of anti-MTDH antibody. Western blot was then performed to detect SND1 that binds to MTDH.
FIG. 10E, Schematic diagram of Co-IP based confirmation of MTDH-SND1 inhibitory compounds (left). SCP28 cells were lysed for IP assay.2 μg of MTDH antibody together with 500 μM of MTDH wild type (Pep-WT) or mutant (Pep-MT) peptides were added into each 1 ml of samples. Red star indicates wild type MTDH peptide competing off SND1 that binds to MTDH.
Co-immunoprecipitation assay (Co-IP), which is a commonly used standard test to determine protein-protein interaction, was next employed to validate the candidates. Lysates of breast cancer cell line SCP28, a single cell-derived subline from the MDA-MB-231 TNBC cell line^25, was immunoprecipitated with anti-MTDH antibody alone or together with inhibitors (FIG. 3F and FIG. 10E). The samples were then incubated with Protein-A/G beads to pull down MTDH, followed by Western blot analysis to detect SND1. […] Using multiple screening and validation platforms, two classes of compounds, C26s and C32s, were obtained that inhibit MTDH-SND1 interaction.
Immunoprecipitation (IP) and western blotting (WB) analysis. For IP experiment, samples were prepared as previously described^32. 100 μl of the supernatant was transferred to a new tube as input, and the rest was incubated with 2 μg of IgG, anti-Myc (Santa Cruz, SC-40), or anti-MTDH (ThermoFisher, 40-6500) (as indicated in each experiment) overnight at 4° C. (small chemical compounds may be added at this step as indicated in each experiment). The rest standard IP procedures were performed as previously noted^32. […]

Caco-2 cells = test: Caco-2 cell based permeability test; format: in vitro ADME; conditions: 5 μM, A-to-B and B-to-A, 120 min
Method: FIG. 11A, Caco-2 cells were employed to test cell permeability of C26-A2 and A6. 5 μM of compounds were dosed on both apical side (A-to-B) and basolateral side (B-to-A). Samples were taken from the donor and receiver chambers at 120 min after treatment. All samples were assayed by LC-MS/MS using electrospray ionization. The apparent permeability (Papp) and percent recovery were calculated.
C26s cell permeability test. The cell permeability of C26-A2 and A6 were determined with monolayer of Caco-2 cells with both the apical-to-basolateral (A-to-B) and basolateral-to-apical (B-to-A) directions by Absorption Systems LLC Detailed protocol can be found in previous studies.

COc1ccc(Cl)cc1S(=O)(=O)Nc1cccn2ncnc12 [Analog C26-A2]
blocking efficiency over time (stability of the compounds in cells) [1]: not significantly changed | split-luc activity in living cells [1]: inhibited split-luc activity in living cells in a dose dependent manner | MTDH-SND1 interaction (SND1 that binds to MTDH, Co-IP) (MTDH-SND1 interaction): strongest inhibitory effects | cell permeability (Caco-2 cells): highly permeable

COc1ccc(Cl)cc1S(=O)(=O)Nc1cccn2nc(C)nc12 [Analog C26-A6]
blocking efficiency over time (stability of the compounds in cells) [1]: not significantly changed | split-luc activity in living cells [1]: inhibited split-luc activity in living cells in a dose dependent manner | MTDH-SND1 interaction (SND1 that binds to MTDH, Co-IP) (MTDH-SND1 interaction): strongest inhibitory effects | cell permeability (Caco-2 cells): highly permeable
